Assays:
[1] = Determination of lipophilicity and pKa values by HPLC; type: physicochemical; conditions: HPLC method
Method: The physicochemical parameters of the rhenium complexes, i.e. lipophilicity log P, log D(pH 7.4), and pKa (Table 2) were determined using HPLC methods (Braumann, T.; Grimme, L. H. Determination of Hydrophobic Parameters for Pyridazinone Herbicides by Liquid-Liquid Partition and Reversed-Phase High-Performance Liquid Chromatography. J. Chromatogr. 1981, 206, 7-15; Stytli, C.; Theobald, A. E. Determination of Ionization Constants of Radiopharmaceuticals in Mixed Solvents by HPLC. Appl. Radiat. Isot., 1987, 38, 701-708; Johannsen, B.; Scheunemann, M.; Spies, H.; Brust, P.; Wober, J.; Syhre, R.; Pietzsch, H.-J. Technetium(V) and Rhenium(V) Complexes for 5-HT2A Serotonin Receptor Binding: Structure-Affinity Considerations. Nucl. Med. Biol., 1996, 23, 429-438; and Johannsen, B.; Berger, R.; Brust, P.; Pietzsch, H.-J; Scheunemann, M.; Seifert, S.; Spies, H.; Syhre, R. Structural Modification of Receptor-Binding Technetium-99m Complexes in Order to Improve Brain Uptake. Eur. J. Nucl. Med. 1997, 24, 316-319). […] Since log D(pH 7.4) is a composite measure of log P and pKa, the log D(PH 7.4) of Re-Compound B (1.9) is also higher than that of Re-Compound A (1.1). […] With pKa values >9 for complexes Re-Compound C and Re-Compound D, the resulting low log D(PH 7.4) values of −0.5 (Re-Compound C) and 0.7 (Re-Compound D) are not surprising, since the complexes would exist in a protonated form at pH 7.4.
Determination of Lipophilicity and pKa Values. The lipophilicity and pKa values of all complexes were determined using HPLC methods described previously (Stylli, C.; Theobald, A. E. Determination of Ionization Constants of 4 Radiopharmaceuticals in Mixed Solvents by HPLC. Appl. Radiat. Isot., 1987, 38, 701-708; Johannsen, B.; Scheunemann, M.; Spies, H.; Brust, P.; Wober, J.; Syhre, R.; Pietzsch, H.-J. Technetium(V) and Rhenium(V) Complexes for 5-HT2A Serotonin Receptor Binding: Structure-Affinity Considerations. Nucl. Med. Biol., 1996, 23, 429-438; and Johannsen, B.; Berger, R.; Brust, P.; Pietzsch, H.-J.; Scheunemann, M.; Seifert, S.; Spies, H.; Syhre, R. Structural Modification of Receptor-Binding Technetium-99m Complexes in Order to Improve Brain Uptake. Eur. J. Nucl. Med. 1997, 24, 316-319). […] The mobile phase was acetonitrile:phosphate buffer (0.01 M), 3:1, v/v, with the aqueous buffer adjusted to the desired pH between 3 and 11. The capacity factor (k′) was calculated for each determination (Braumann, T.; Grimme, L. H. Determination of Hydrophobic Parameters for Pyridazinone Herbicides by Liquid-Liquid Partition and Reversed-Phase High-Performance Liquid Chromatography. J. Chromatogr. 1981, 206, 7-15; El Tayer, N.; van der Waterbeemd, H.; Testa, B. Lipophilicity Measurements of Protonated Basic Compounds by Reversed-Phase High-Performance Liquid Chromatography. II. Procedure for the Determination of a Lipophilic Index Measured by Reversed-Phase High Performance Liquid Chromatography. J. Chromatogr. 1985, 320, 305-312; and Minick, D. J.; Frenz, J. H.; Patrick, M. A.; Brent, D. A. A Comprehensive Method for Determining Hydrophobicity Constants by Reversed-Phase High-Performance Liquid Chromatography. J. Med. Chem., 1988, 31, 1923-1933) and the partition coefficient at a given pH (D or log D) were calculated from the equation: log D=a log k′+b where the parameters a and b are predetermined using standard amines. The fitted points of inflection from the sigmoidal DHPLC/pH profiles permit calculation of the pKHPLC(Stylli, C.; Theobald, A. E. Determination of Ionization Constants of Radiopharmaceuticals in Mixed Solvents by HPLC. Appl. Radiat. Isot., 1987, 38, 701-708). The aqueous ionization constants pKa were calculated from the pKHPLC values after correction with a predetermined correction factor obtained using standard amine compounds. Log P values of the neutral complexes were estimated from the respective upper plateau of the sigmoidal log D/pH curve in the alkaline range.

σ2-receptors = target: T1, σ2-receptors (Rattus norvegicus, UniProt Q5U3Y7); assay: σ2-Receptor binding assay; conditions: σ2 vs σ1
T1 construct: Rat liver membranes were prepared from male Sprague-Dawley rat livers as previously described; from tissue; host or cells: male Sprague-Dawley rat liver membranes
T1 sequence (Q5U3Y7 1-176): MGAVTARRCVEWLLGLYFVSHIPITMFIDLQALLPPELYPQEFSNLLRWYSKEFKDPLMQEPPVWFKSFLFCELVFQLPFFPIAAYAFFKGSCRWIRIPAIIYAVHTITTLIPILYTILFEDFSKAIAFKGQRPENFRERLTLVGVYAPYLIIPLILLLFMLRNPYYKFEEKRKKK
Method: Receptor Binding Studies. To understand the involvement of receptor binding in the melanoma-cell uptake of these ^99mTc-complexes, we further investigated the affinity of these complexes in an established σ-receptor assay.
σ2-Receptor Binding Assay. Rat liver membranes were prepared from male Sprague-Dawley rat livers as previously described (Hellewell, S. B.; Bruce A.; Feinstein, G.; Orringer, J.; Williams, W.; Bowen, W. D. Rat Liver and Kidney Contain High Densities of σ1 and σ2 Receptors: Characterization by Ligand Binding and Photoaffinity Labeling. Eur. J. Pharmacol.-Mol. Pharmacol. Sect. 1994, 268, 9-18). […] Competition assays were performed with fifteen concentrations of the nonradioactive rhenium complexes ranging from 10^−10 to 10^−3 M and protein samples (0.15 mg membrane protein) in Tris-HCl (50 mM), pH 8.0, for 120 min at 25° C. in a 0.25-mL volume. All other manipulations and data analysis were performed as described vide supra for the σ1 receptor assay.

melanoma = conditions: 1 hour post injection; cited from earlier work

| pKa [1] | log D(pH 7.4) ([1]; pH 7.4) | greater affinity toward the σ2-receptor subtype (σ2-receptors) [fold] | SMILES | melanoma uptake (melanoma) |
| --- | --- | --- | --- | --- |
| 9.2 | −0.5 | 100 | CCN(CC)CCCN1CC[S][Re]2(=[O])[S]CC[N]2C(=O)C1 (centres unmarked) [Re-Compound C, [ReOAADT]-C3—NEt2] | – |
| – | – | – | CCN(CC)CCNC(=O)c1ccc(CC2[N]3CC(C)(C)[S][Tc]34(#[N])[S]C(C)(C)C[N]4C2(C)C)cc1 (centres unmarked) [Compound 1] | Compound 10.4% uptake % ID/g |
| – | – | – | CCN(CC)CCNC(=O)c1ccc(CCNC2=[SH][Tc]3(#[N])([S]2)[S]C(NCCc2ccc(C(=O)NCCN(CC)CC)cc2)=[SH]3)cc1 [Compound 4] | Compound 40.5% uptake % ID/g |

From US7321027B2, “Small technetium-99m and rhenium labeled agents and methods for imaging tumors” (President and Fellows of Harvard College, priority 2000, dated 2008)
